From patent publication US20200270265A1, “TETRACYCLIC PYRIDONE COMPOUNDS AS ANTIVIRALS” (Novartis AG, priority 2016, published 2020)

Experiments:
Assay type in all cases: in vivo
[1] = Pharmacokinetics in rat (iv and PO); conditions: iv 1.0 mg/kg, PO 2.0 mg/kg
[2] = Pharmacokinetics in mice (iv and PO); conditions: iv 1.0 mg/kg, PO 2.0 mg/kg
[3] = Pharmacokinetics in dog (iv and PO); conditions: iv 0.5 mg/kg, PO 1.0 mg/kg

Row | Compound | Oral BA [1] [% F] | T1/2term [1] [h] | Oral BA [2] [% F] | T1/2term [2] [h] | Oral BA [3] [% F] | T1/2term [3] [h]
1 | COCCCOc1cc2c(cc1OC)-c1cc(=O)c(C(=O)O)cn1[C@H]1[C@@H]2CCC1(C)C [Compound 1.1, (3aS,12bR)-10-methoxy-11-(3-methoxypropoxy)-3,3-dimethyl-7-oxo-1,2,3,3a,7,12b-hexahydrocyclopenta[c]pyrido[2,1-a]isoquinoline-6-carboxylic acid] | 97 | 2.4 | 59 | 1.6 | 93 | 5.9
2 | COCCCOc1cc2c(cc1OC)-c1c(F)c(=O)c(C(=O)O)cn1[C@H]1[C@@H]2CCC1(C)C [Compound 3.1, (3aS,12bR)-8-fluoro-10-methoxy-11-(3-methoxypropoxy)-3,3-dimethyl-7-oxo-1,2,3,3a,7,12b-hexahydrocyclopenta[c]pyrido[2,1-a]isoquinoline-6-carboxylic acid] | 57 | 9.2 | 87 | 3.8 | 96 | 7.2
3 | COCCCOc1cc2c(cc1OC)-c1cc(=O)c(C(=O)O)cn1[C@H]1[C@@H]2OCC1(C)C [Compound 4.1, (3aR,12bR)-10-methoxy-11-(3-methoxypropoxy)-3,3-dimethyl-7-oxo-3,3a,7,12b-tetrahydro-2H-furo[3,2-c]pyrido[2,1-a]isoquinoline-6-carboxylic acid] | 65 | 1.2 | 100 | 1.8 | 94 | 
